{
  "source": "patent US11564928B1",
  "about": "“Cannabinoid receptor type 2 (CB2) modulators and uses thereof” (Teon Therapeutics, Inc., priority 2020, dated 2023)",
  "key": {"human recombinant CB1R": {"molecular_target": "human recombinant CB1R (Homo sapiens (Human), UniProt P21554)", "sequence (P21554 whole entry)": "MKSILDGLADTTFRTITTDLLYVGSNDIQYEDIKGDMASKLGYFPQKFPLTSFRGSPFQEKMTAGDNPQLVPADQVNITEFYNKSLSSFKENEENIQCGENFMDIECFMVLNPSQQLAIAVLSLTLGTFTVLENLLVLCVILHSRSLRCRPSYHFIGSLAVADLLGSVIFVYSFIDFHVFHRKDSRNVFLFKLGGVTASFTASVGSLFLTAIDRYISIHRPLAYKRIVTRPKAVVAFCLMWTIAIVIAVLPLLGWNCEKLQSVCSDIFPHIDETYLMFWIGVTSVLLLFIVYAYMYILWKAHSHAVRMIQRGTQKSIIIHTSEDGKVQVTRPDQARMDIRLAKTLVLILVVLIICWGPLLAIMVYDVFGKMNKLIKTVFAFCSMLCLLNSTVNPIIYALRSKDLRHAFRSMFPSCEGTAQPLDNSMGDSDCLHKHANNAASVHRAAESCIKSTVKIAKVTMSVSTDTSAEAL", "assay": "CB1 receptor binding assay ([3H]CP-55,940 displacement, HEK-293 membranes)", "conditions": "membranes of HEK-293 cells with human recombinant CB1R, [3H]CP-55,940, read-out: CB1 IC50", "how_it_was_run": "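Membranes from HEK-293 cells expressing human recombinant CB1R or CB2R were incubated with [3H]CP-55,940 and compound for 120 min at 37 °C in duplicate. The CB2R incubation buffer was 50 mM Tris-HCl, 5 mM MgCl2, 1 mM CaCl2, 0.2% BSA, pH 7.4. Bound radioactivity was filtered and counted, and IC50 was converted to Ki by Cheng–Prusoff.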"}, "human CB2 receptor": {"molecular_target": "human CB2 receptor (Homo sapiens (Human), UniProt P34972)", "sequence (P34972 whole entry)": "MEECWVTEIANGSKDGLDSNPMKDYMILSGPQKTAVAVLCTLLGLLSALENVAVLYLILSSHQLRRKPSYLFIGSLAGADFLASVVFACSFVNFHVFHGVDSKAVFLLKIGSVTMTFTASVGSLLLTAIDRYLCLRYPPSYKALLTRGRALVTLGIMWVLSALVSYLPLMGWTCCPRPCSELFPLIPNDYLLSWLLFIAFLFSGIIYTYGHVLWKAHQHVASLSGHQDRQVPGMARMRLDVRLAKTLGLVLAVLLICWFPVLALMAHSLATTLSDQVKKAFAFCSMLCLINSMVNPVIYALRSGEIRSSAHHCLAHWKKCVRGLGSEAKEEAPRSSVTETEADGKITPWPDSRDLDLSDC", "assay": "CB2 receptor binding assay ([3H]CP-55,940 displacement, HEK-293 membranes)"}, "[1]": {"conditions": "membranes of HEK-293 cells with human recombinant CB2R, [3H]CP-55,940, class symbols, read-out: CB2 IC50"}},
  "note": "pIC50: −log10 of the molar value. Where two headings read alike, the source gives them in different places.",
  "data": [
    {"smiles": "COC(=O)C(C)(C)NC(=O)c1c(O)c2cc(-c3ccc(F)cc3)cnc2n(CCN2CCOCC2)c1=O", "note": "[Compound 119, methyl 2-(6-(4-fluorophenyl)-4-hydroxy-1-(2-morpholinoethyl)-2-oxo-1,2-dihydro-1,8-naphthyridine-3-carboxamido)-2-methylpropanoate]", "values": [
      {"measurement": "pIC50", "setting": "human recombinant CB1R; class symbols", "result": "< 6.00"},
      {"measurement": "pIC50", "setting": "human CB2 receptor", "result": "6.00 to 7.00"}
    ]},
    {"smiles": "CC(C)(NC(=O)c1c(O)c2cc(-c3ccc(F)cc3)cnc2n(CCN2CCOCC2)c1=O)C(=O)O", "note": "[Compound 120, 2-(6-(4-fluorophenyl)-4-hydroxy-1-(2-morpholinoethyl)-2-oxo-1,2-dihydro-1,8-naphthyridine-3-carboxamido)-2-methylpropanoic acid]", "values": [
      {"measurement": "pIC50", "setting": "human recombinant CB1R; class symbols", "result": "< 6.00"},
      {"measurement": "pIC50", "setting": "human CB2 receptor; [1]", "result": "< 6.00"}
    ]},
    {"smiles": "O=C(NC1(CO)CCCCC1)c1c(O)c2cc(-c3ccc(F)cc3)cnc2n(CCN2CCOCC2)c1=O", "note": "[Compound 121, 6-(4-fluorophenyl)-4-hydroxy-N-(1-(hydroxymethyl)cyclohexyl)-1-(2-morpholinoethyl)-2-oxo-1,2-dihydro-1,8-naphthyridine-3-carboxamide]", "values": [
      {"measurement": "pIC50", "setting": "human recombinant CB1R", "result": 5.64},
      {"measurement": "pIC50", "setting": "human CB2 receptor; membranes of HEK-293 cells with human recombinant CB2R, [3H]CP-55,940, read-out: CB2 IC50", "result": 8.05}
    ]},
    {"smiles": "O=C(NC12CC(C1)C2)c1c(O)c2cc(-c3ccc(F)cn3)cnc2n(CCN2CCOCC2)c1=O", "note": "[Compound 122, N-(bicyclo[1.1.1]pentan-1-yl)-6-(5-fluoropyridin-2-yl)-4-hydroxy-1-(2-morpholinoethyl)-2-oxo-1,2-dihydro-1,8-naphthyridine-3-carboxamide]", "values": [
      {"measurement": "pIC50", "setting": "human recombinant CB1R; class symbols", "result": "< 6.00"},
      {"measurement": "pIC50", "setting": "human CB2 receptor", "result": "6.00 to 7.00"}
    ]},
    {"smiles": "O=C(NC12CC(C1)C2)c1c(O)c2cc(-c3cccnc3)cnc2n(CCN2CCOCC2)c1=O", "note": "[Compound 123, N-(bicyclo[1.1.1]pentan-1-yl)-4-hydroxy-1-(2-morpholinoethyl)-2-oxo-6-(pyridin-3-yl)-1,2-dihydro-1,8-naphthyridine-3-carboxamide]", "values": [
      {"measurement": "pIC50", "setting": "human recombinant CB1R; class symbols", "result": "< 6.00"},
      {"measurement": "pIC50", "setting": "human CB2 receptor; [1]", "result": "< 6.00"}
    ]},
    {"smiles": "O=C(NC12CC(C1)C2)c1c(O)c2cc(-c3ccncc3)cnc2n(CCN2CCOCC2)c1=O", "note": "[Compound 124, N-(bicyclo[1.1.1]pentan-1-yl)-4-hydroxy-1-(2-morpholinoethyl)-2-oxo-6-(pyridin-4-yl)-1,2-dihydro-1,8-naphthyridine-3-carboxamide]", "values": [
      {"measurement": "pIC50", "setting": "human recombinant CB1R; class symbols", "result": "< 6.00"},
      {"measurement": "pIC50", "setting": "human CB2 receptor; [1]", "result": "< 6.00"}
    ]},
    {"smiles": "O=C(NC12CC(C1)C2)c1c(O)c2cc(C3=CCCC3)cnc2n(CCN2CCOCC2)c1=O", "note": "[Compound 125, N-(bicyclo[1.1.1]pentan-1-yl)-6-(cyclopent-1-en-1-yl)-4-hydroxy-1-(2-morpholinoethyl)-2-oxo-1,2-dihydro-1,8-naphthyridine-3-carboxamide]", "values": [
      {"measurement": "pIC50", "setting": "human recombinant CB1R; class symbols", "result": "< 6.00"},
      {"measurement": "pIC50", "setting": "human CB2 receptor", "result": "6.00 to 7.00"}
    ]},
    {"smiles": "O=C(NC12CC(C1)C2)c1c(O)c2cc(C3CCCC3)cnc2n(CCN2CCOCC2)c1=O", "note": "[Compound 126, N-(bicyclo[1.1.1]pentan-1-yl)-6-cyclopentyl-4-hydroxy-1-(2-morpholinoethyl)-2-oxo-1,2-dihydro-1,8-naphthyridine-3-carboxamide]", "values": [
      {"measurement": "pIC50", "setting": "human recombinant CB1R; class symbols", "result": "< 6.00"},
      {"measurement": "pIC50", "setting": "human CB2 receptor; [1]", "result": "< 6.00"}
    ]},
    {"smiles": "O=C(NC12CC(C1)C2)c1c(O)c2cc(C3CCC3)cnc2n(CCN2CCOCC2)c1=O", "note": "[Compound 127, N-(bicyclo[1.1.1]pentan-1-yl)-6-cyclobutyl-4-hydroxy-1-(2-morpholinoethyl)-2-oxo-1,2-dihydro-1,8-naphthyridine-3-carboxamide]", "values": [
      {"measurement": "pIC50", "setting": "human recombinant CB1R; class symbols", "result": "< 6.00"},
      {"measurement": "pIC50", "setting": "human CB2 receptor; [1]", "result": "< 6.00"}
    ]},
    {"smiles": "O=C(NC12CC(C1)C2)c1c(O)c2cc(-c3ccc(F)cc3)cnc2n(CCN2CCCCC2)c1=O", "note": "[Compound 128, N-(bicyclo[1.1.1]pentan-1-yl)-6-(4-fluorophenyl)-4-hydroxy-2-oxo-1-(2-(piperidin-1-yl)ethyl)-1,2-dihydro-1,8-naphthyridine-3-carboxamide]", "values": [
      {"measurement": "pIC50", "setting": "human recombinant CB1R; class symbols", "result": "< 6.00"},
      {"measurement": "pIC50", "setting": "human CB2 receptor", "result": "6.00 to 7.00"}
    ]},
    {"smiles": "O=C(NC12CC(C1)C2)c1c(O)c2cc(-c3ccc(F)cc3)cnc2n(Cc2ccncc2)c1=O", "note": "[Compound 129, N-(bicyclo[1.1.1]pentan-1-yl)-6-(4-fluorophenyl)-4-hydroxy-2-oxo-1-(pyridin-4-ylmethyl)-1,2-dihydro-1,8-naphthyridine-3-carboxamide]", "values": [
      {"measurement": "pIC50", "setting": "human recombinant CB1R; class symbols", "result": "< 6.00"},
      {"measurement": "pIC50", "setting": "human CB2 receptor; [1]", "result": "< 6.00"}
    ]}
  ]
}
